According to patent US4760053A, “Combination therapy for selected sex steroid dependent cancers” (priority 1985, dated 1988):

What was measured:
advanced breast cancer = settings: cited from earlier work
serum testosterone = test: LHRH agonist-induced serum testosterone in the dog; assay type: in vivo; settings: dogs; for prevention of the rise in serum testosterone during the first days of treatment with the peptide: given per os three times daily together with 50 μg LHRH-A daily (aminoglutethimide group plus hydrocortisone)
Procedure: Eighteen mongrel dogs weighing between 20-30 kg were randomly divided into three groups. The animals were housed one per cage and fed Purina Dog Chow and tap water ad libitum.
The animals of group 1 were injected daily (at 0700 h) with 50 μg of the LHRH agonist [D-Trp^6, des-Gly-NH2^10 ]LHRH ethylamide (LHRH-A). In group 2, the animals were also injected daily with 50 μg of LHRH-A and took in addition 200 mg of ketoconazole per os at 0700 h, 1500 h and 2300 h. The animals of group 3 received daily 50 μg of LHRH-A and 125 mg of aminoglutethimide per os at 0700 h, 1500 h, 2300 h plus 10 mg of hydrocortisone twice daily.
Blood samples were collected at 0700 h, 0900 h, 1100 h and 1500 h one day before treatment and every day during the treatment. Plasma was extracted with diethyl ether and testosterone was separated on LH-20 columns before RIA measurements.

testosterone levels = settings: rodents, in combination with chronic administration of Leuprolide; cited from earlier work
[1] = system: MCF7 human breast tumor cells; settings: inhibitory activity antagonized by estradiol; cited from earlier work

For `CC/C(=C(\c1ccccc1)c1ccc(OCCN(C)C)cc1)c1ccccc1` [Tamoxifen, (Z)-2-[4-(1,2-diphenyl-1-butenyl)phenoxy]-N,N-dimethylethanamine], the “remission of advanced breast cancer, share of patients treated” value (advanced breast cancer; Tamoxifen alone) is listed as “about 30%” and the “objective remission of breast cancer” value (advanced breast cancer; combined use with the LH-RH agonist Buserelin) is listed as 35%.

For `CCNC(=O)[C@@H]1CCCN1C(=O)[C@H](CCCNC(=N)N)NC(=O)[C@H](CC(C)C)NC(=O)[C@@H](Cc1c[nH]c2ccccc12)NC(=O)[C@H](Cc1ccc(O)cc1)NC(=O)[C@H](CO)NC(=O)[C@H](Cc1c[nH]c2ccccc12)NC(=O)[C@H](Cc1c[nH]cn1)NC(=O)[C@@H]1CCC(=O)N1` [[D-Trp^6 des-Gly-NH2^10]LHRH ethylamide, [D-Trp^6, des-Gly-NH2^10]LHRH ethylamide], the “level of serum testosterone on day 19” value (serum testosterone; daily injection of 50 μg, day 19) was “near-castration levels” and the “increase in serum testosterone” value (serum testosterone; daily injection of 50 μg, one to six days after start of treatment) was “approximately 500 % above control”.

In the case of `CCC1(c2ccc(N)cc2)CCC(=O)NC1=O` (centres unmarked) [aminoglutethimide, 3-(4-aminophenyl)-3-ethyl-2,6-piperidinedione], the “prevention of the rise in serum testosterone during the first days of treatment with the peptide” value (serum testosterone) is reported as “almost completely prevented”.

In the case of `CC(=O)N1CCN(c2ccc(OCC3COC(Cn4ccnc4)(c4ccc(Cl)cc4Cl)O3)cc2)CC1` (centres unmarked) [ketoconazole], the “prevention of the rise in serum testosterone during the first days of treatment with the peptide” value (serum testosterone) is listed as “almost completely prevented” and the “basal and Leuprolide stimulated testosterone levels” value (testosterone levels) is listed as “decreased”.

For `CC[C@H](c1cccc(O)c1)[C@@H](CC)c1cccc(O)c1` [meso-3,4-bis(3'-hydroxyphenyl)hexane], the “inhibition of MCF7 human breast tumor cells” value [1] is listed as “inhibits”.
